Measured values published in US10231954B2, “Neurodegenerative therapies” (LYTIX BIOPHARMA AS, priority 2014, dated 2019).
Read-outs that look alike come from different tables or passages of the source.

Tests used:
p38a MAPK = p38a MAPK (Homo sapiens, UniProt Q16539); experiment: Kinase profiling p38a MAPK; format: biochemical; conditions: for remaining activity at 100 µM: read-out: residual kinase activity, p38a MAPK
Description: (§1) Any value less that 25 is considered to be highly significant inhibition.

SGK1 = molecular target: T1, SGK1 (Homo sapiens, UniProt O00141); experiment: Kinase profiling SGK1; format: biochemical; conditions: for remaining activity at 100 µM: read-out: residual kinase activity, SGK1
T1 sequence (O00141 1-431): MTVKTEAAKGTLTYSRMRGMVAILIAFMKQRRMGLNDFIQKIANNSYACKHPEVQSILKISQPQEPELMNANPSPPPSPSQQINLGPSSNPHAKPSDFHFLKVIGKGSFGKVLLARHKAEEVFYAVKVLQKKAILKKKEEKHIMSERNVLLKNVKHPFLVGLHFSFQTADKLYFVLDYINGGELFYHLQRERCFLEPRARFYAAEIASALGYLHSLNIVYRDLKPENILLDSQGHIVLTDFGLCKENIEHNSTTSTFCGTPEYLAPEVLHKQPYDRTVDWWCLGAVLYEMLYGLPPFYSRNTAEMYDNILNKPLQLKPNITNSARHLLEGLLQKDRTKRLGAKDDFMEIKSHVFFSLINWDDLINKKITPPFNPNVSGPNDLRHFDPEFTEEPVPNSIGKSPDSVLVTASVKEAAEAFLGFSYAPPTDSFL
Description: as §1

CAMKKb = CAMKKb (Homo sapiens, UniProt Q96RR4); experiment: Kinase profiling CAMKKb; format: biochemical; conditions: for remaining activity at 100 µM: read-out: residual kinase activity, CAMKKb
Chain of CAMKKb (Q96RR4 whole entry, species assumed): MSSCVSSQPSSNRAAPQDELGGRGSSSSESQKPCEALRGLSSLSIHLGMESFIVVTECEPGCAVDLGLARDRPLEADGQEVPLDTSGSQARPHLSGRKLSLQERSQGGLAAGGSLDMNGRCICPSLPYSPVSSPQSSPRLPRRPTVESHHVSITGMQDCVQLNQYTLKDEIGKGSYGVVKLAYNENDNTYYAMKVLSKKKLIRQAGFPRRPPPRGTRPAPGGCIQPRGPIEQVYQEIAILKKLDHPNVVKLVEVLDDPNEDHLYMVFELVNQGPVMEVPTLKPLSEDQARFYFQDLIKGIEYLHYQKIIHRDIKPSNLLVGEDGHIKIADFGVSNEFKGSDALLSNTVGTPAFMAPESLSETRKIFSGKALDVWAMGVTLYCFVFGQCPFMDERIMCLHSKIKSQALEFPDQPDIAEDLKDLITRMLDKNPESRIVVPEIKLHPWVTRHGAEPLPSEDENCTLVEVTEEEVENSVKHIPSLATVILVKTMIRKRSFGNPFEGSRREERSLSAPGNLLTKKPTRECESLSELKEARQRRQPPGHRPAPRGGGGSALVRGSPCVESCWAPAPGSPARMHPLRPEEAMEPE
Description: as §1

PLK1 = PLK1 (Homo sapiens, UniProt P53350); experiment: Kinase profiling PLK1; format: biochemical; conditions: for remaining activity at 100 µM: read-out: residual kinase activity, PLK1
Chain of PLK1 (P53350 whole entry, species assumed): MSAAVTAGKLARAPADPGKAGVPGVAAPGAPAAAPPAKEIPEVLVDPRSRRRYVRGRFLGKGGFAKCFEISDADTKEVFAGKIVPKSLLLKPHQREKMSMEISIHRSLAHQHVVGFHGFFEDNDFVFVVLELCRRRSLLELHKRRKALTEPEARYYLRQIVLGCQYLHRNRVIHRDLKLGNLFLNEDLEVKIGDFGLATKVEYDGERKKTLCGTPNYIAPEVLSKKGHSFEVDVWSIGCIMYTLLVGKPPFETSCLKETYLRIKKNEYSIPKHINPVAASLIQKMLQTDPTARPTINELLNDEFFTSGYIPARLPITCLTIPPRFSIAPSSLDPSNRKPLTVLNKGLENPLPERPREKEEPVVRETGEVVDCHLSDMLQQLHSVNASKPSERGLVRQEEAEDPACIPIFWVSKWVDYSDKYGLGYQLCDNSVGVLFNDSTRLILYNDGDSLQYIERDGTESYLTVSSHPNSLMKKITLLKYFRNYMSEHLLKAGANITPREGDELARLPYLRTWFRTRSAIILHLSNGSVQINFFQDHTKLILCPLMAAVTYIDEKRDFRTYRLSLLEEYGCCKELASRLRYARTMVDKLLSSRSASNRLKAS
Description: as §1

LKB1 = molecular target: T2, LKB1 (Homo sapiens, UniProt Q15831); experiment: Kinase profiling LKB1; format: biochemical; conditions: for remaining activity at 100 µM: read-out: residual kinase activity, LKB1
T2 sequence (Q15831 1-433): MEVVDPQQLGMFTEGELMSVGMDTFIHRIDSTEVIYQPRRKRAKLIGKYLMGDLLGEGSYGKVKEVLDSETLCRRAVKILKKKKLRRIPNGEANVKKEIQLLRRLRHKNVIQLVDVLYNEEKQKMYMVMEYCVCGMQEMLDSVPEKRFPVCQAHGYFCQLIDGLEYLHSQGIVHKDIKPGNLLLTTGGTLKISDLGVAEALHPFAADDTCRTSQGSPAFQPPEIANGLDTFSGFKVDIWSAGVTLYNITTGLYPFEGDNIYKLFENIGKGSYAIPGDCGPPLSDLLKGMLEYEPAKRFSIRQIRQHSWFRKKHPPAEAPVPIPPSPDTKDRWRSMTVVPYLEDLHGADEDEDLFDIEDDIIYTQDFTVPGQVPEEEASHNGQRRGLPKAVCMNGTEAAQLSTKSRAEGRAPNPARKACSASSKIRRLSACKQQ
T2 sequence (Q7RTN6 1-431 partner): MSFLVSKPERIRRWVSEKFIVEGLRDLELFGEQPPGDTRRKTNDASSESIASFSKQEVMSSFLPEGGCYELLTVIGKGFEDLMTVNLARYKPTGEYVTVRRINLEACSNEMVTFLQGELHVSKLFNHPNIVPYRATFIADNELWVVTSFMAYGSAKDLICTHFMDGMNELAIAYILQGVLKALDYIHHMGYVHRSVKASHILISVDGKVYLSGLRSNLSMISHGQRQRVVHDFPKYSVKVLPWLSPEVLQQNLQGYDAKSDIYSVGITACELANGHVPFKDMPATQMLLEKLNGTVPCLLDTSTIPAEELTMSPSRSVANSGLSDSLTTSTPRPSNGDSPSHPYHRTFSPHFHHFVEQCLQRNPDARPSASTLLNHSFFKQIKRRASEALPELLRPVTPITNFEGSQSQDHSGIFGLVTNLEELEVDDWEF
T2 sequence (Q9Y376 1-341 partner): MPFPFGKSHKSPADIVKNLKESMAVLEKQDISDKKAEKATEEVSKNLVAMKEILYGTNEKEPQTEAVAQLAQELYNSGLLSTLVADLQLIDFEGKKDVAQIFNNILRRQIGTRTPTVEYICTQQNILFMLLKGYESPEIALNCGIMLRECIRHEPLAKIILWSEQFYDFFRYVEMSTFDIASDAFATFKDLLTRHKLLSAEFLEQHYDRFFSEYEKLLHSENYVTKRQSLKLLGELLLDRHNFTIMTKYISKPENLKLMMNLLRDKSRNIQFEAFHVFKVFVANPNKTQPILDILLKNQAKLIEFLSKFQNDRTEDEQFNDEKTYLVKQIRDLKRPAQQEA
Description: as §1

AMPK (hum) = experiment: Kinase profiling AMPK (hum); format: biochemical, human
Description: as §1

BTK = BTK (Homo sapiens, UniProt Q06187); experiment: Kinase profiling BTK; format: biochemical; conditions: for remaining activity at 100 µM: read-out: residual kinase activity, BTK
Chain of BTK (Q06187 whole entry, species assumed): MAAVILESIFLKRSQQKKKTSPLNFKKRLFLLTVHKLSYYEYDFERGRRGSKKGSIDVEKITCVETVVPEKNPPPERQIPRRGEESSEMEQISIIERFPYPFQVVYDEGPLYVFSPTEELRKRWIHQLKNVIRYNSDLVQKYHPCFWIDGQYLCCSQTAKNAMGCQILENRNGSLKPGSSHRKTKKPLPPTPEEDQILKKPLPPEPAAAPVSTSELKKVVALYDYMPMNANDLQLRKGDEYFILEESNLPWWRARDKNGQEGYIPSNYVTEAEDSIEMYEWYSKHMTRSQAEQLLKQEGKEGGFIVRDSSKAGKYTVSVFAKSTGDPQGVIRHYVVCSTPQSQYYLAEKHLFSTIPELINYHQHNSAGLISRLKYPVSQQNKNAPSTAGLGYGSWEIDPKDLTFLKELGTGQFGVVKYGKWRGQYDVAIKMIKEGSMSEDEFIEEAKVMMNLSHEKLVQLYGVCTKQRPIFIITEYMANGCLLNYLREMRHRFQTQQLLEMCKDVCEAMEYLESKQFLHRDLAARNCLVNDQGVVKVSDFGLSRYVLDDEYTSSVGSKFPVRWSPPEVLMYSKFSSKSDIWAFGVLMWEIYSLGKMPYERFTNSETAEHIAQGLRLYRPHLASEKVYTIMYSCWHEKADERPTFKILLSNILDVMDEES
Description: as §1

VEG-FR = experiment: Kinase profiling VEG-FR; format: biochemical
Description: as §1

[1] = 100 micromolar inhibitor concentration, 100 is no change
[2] = 100 micromolar inhibitor, 100 = no change

Chain of p38a MAPK (Q16539 whole entry): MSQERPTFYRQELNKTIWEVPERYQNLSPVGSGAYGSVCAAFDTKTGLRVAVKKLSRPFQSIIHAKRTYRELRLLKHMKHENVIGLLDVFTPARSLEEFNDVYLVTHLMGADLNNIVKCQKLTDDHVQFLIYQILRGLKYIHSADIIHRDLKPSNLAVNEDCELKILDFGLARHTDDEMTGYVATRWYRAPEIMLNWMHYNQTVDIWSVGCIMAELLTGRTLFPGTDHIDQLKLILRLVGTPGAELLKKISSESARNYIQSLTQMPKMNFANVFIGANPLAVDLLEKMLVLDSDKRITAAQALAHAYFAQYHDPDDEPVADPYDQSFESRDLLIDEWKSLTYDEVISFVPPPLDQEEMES

Row | Compound | residual kinase activity, p38a MAPK (p38a MAPK; [1]) | residual kinase activity, SGK1 (SGK1; [1]) | residual kinase activity, CAMKKb (CAMKKb; [1]) | residual kinase activity, PLK1 (PLK1; [1]) | residual kinase activity, LKB1 (LKB1; [1]) | residual kinase activity, AMPK (hum) (AMPK (hum); [1]) | residual kinase activity, BTK (BTK; [1]) | residual kinase activity, VEG-FR (VEG-FR; [1]) | other results
1 | COC(=O)c1cccc(C(=O)Nc2nc3cc(OC)ccc3s2)c1 [Compound 03-108] | 94 | 83 | 80 | 96 | 90 | 101 | 68 | 77 | –
2 | COc1ccc2sc(NC(=O)c3cccc(C(N)=O)c3)nc2c1 [Compound 03-113] | 113 | 88 | 70 | 105 | 95 | 96 | 74 | 86 | –
3 | N#Cc1ccc2nc(NC(=O)c3ccccc3)sc2c1 [Compound 03-106] | 60 | 77 | 67 | 103 | 107 | 80 | 49 | 36 | –
4 | COc1ccc2nc(NC(=O)c3ccccc3)sc2c1 [Compound 03-98] | 86 | 78 | 45 | 102 | 118 | 94 | 56 | 37 | –
5 | CC(=O)Nc1nc2ccc(F)cc2s1 [Compound 03-94] | 84 | 67 | 67 | 93 | 46 | 59 | 107 | 18 | –
6 | O=C(Nc1nc2ccc(C(F)(F)F)cc2s1)c1ccccc1 [Compound 03-99] | 86 | 69 | 86 | 112 | 103 | 73 | 79 | 28 | –
7 | COC(=O)c1cccc(C(=O)Nc2nc3ccc(F)cc3s2)c1 [Compound 03-110] | 106 | 87 | 62 | 108 | 92 | 69 | 77 | 66 | –
8 | COc1ccc2nc(C(=O)Nc3ccccc3)sc2c1 [Compound 13-03] | – | – | – | – | – | – | – | – | residual kinase activity, p38a MAPK (p38a MAPK; [2]): 103; residual kinase activity, SGK1 (SGK1; [2]): 91; residual kinase activity, CAMKKb (CAMKKb; [2]): 91; residual kinase activity, PLK1 (PLK1; [2]): 93; residual kinase activity, LKB1 (LKB1; [2]): 110; residual kinase activity, AMPK (hum) (AMPK (hum); [2]): 99; residual kinase activity, BTK (BTK; [2]): 31; residual kinase activity, VEG-FR (VEG-FR; [2]): 87
9 | O=C(Nc1nc2ccc(F)cc2s1)c1ccccc1 [Compound 03-92] | 114 | 93 | 80 | 92 | 100 | 76 | 73 | 53 | –
10 | COc1ccc2sc(NC(=O)c3ccccc3)nc2c1 [Compound 03-95] | 82 | 60 | 54 | 77 | 72 | 75 | 75 | 65 | –
11 | O=C(Nc1nc2cc(O)ccc2s1)c1ccccc1 [Compound 03-102] | 57 | 86 | 32 | 83 | 33 | 49 | 81 | 11 | –
12 | COc1cccc(NC(=O)Nc2nc3cc(O)ccc3s2)c1 [Compound 13-62] | – | – | – | – | – | – | – | – | residual kinase activity, p38a MAPK (p38a MAPK; [2]): 21; residual kinase activity, SGK1 (SGK1; [2]): 21; residual kinase activity, CAMKKb (CAMKKb; [2]): 25; residual kinase activity, PLK1 (PLK1; [2]): 98; residual kinase activity, LKB1 (LKB1; [2]): 91; residual kinase activity, AMPK (hum) (AMPK (hum); [2]): 23; residual kinase activity, BTK (BTK; [2]): 25; residual kinase activity, VEG-FR (VEG-FR; [2]): 7
13 | COC(=O)c1cccc(C(=O)Nc2nc3ccc(C(F)(F)F)cc3s2)c1 [Compound 03-105, Methyl 3-((6-(trifluoromethyl)benzo[d]thiazol-2-yl)carbamoyl)benzoate] | – | – | – | – | – | 71 | – | 29 | remaining activity at 100 µM (p38a MAPK): 84%; remaining activity at 100 µM (SGK1): 86%; remaining activity at 100 µM (CAMKKb): 48%; remaining activity at 100 µM (PLK1): 101%; remaining activity at 100 µM (LKB1): 91%; remaining activity at 100 µM (BTK): 95%
14 | CC(=O)Nc1nc2ccc([N+](=O)[O-])cc2s1 [Compound 13-10] | – | – | – | – | – | 70 | – | 5 | remaining activity at 100 µM (p38a MAPK; [1]): 103%; remaining activity at 100 µM (SGK1; [1]): 58%; remaining activity at 100 µM (CAMKKb; [1]): 73%; remaining activity at 100 µM (PLK1; [1]): 96%; remaining activity at 100 µM (LKB1; [1]): 73%; remaining activity at 100 µM (BTK; [1]): 96%
